# Data taken from the NIST ThermoML archive (doi:10.1021/acs.jced.5b00105).
# Numbers after ± are expanded uncertainties.
# Legend:
# [1] = for surface tension liquid-gas: Drop volume; for viscosity / mass density: 100 kPa, Liquid; for viscosity: Concentric cylinders viscometry; for mass density: Vibrating tube method
# [2] = refractive index (Na D-line) (dimensionless); conditions: 100 kPa, Liquid
# [3] = refractive index (Na D-line) (dimensionless); xn = mol fraction of the nth substance listed; conditions: 100 kPa, Liquid, x2 = 0
# [4] = xn = mol fraction of the nth substance listed; conditions: x2 = 0; for surface tension liquid-gas: Drop volume; for viscosity / mass density: 100 kPa, Liquid; for viscosity: Concentric cylinders viscometry; for mass density: Vibrating tube method
structure (smiles),measurement,setting,value
"CC(C)CC(C)(C)C [2,2,4-trimethylpentane]",surface tension liquid-gas,[1]; 293.15 K,18.94 ± 0.24 mN/m
same,viscosity,[1]; 293.15 K,0.518 ± 0.083 mPa·s
same,mass density,[1]; 293.15 K,691.91 ± 0.19 kg/m3
same,surface tension liquid-gas,[1]; 298.15 K,18.39 ± 0.24 mN/m
same,viscosity,[1]; 298.15 K,0.493 ± 0.079 mPa·s
same,mass density,[1]; 298.15 K,687.82 ± 0.19 kg/m3
same,surface tension liquid-gas,[1]; 303.15 K,17.99 ± 0.24 mN/m
same,viscosity,[1]; 303.15 K,0.47 ± 0.075 mPa·s
same,mass density,[1]; 303.15 K,683.68 ± 0.19 kg/m3
same,surface tension liquid-gas,[1]; 308.15 K,17.58 ± 0.23 mN/m
same,viscosity,[1]; 308.15 K,0.449 ± 0.072 mPa·s
same,mass density,[1]; 308.15 K,679.51 ± 0.19 kg/m3
same,viscosity,[1]; 313.15 K,0.43 ± 0.069 mPa·s
same,mass density,[1]; 313.15 K,675.32 ± 0.19 kg/m3
same,viscosity,[1]; 318.15 K,0.414 ± 0.066 mPa·s
same,mass density,[1]; 318.15 K,671.05 ± 0.19 kg/m3
same,viscosity,[1]; 323.15 K,0.398 ± 0.064 mPa·s
same,mass density,[1]; 323.15 K,666.8 ± 0.2 kg/m3
same,viscosity,[1]; 333.15 K,0.371 ± 0.06 mPa·s
same,mass density,[1]; 333.15 K,658.2 ± 0.2 kg/m3
same,viscosity,[1]; 343.15 K,0.348 ± 0.056 mPa·s
same,mass density,[1]; 343.15 K,649.44 ± 0.2 kg/m3
same,refractive index,[2]; 293.15 K,1.3921 ± 0.0015
same,refractive index,[2]; 298.15 K,1.3886 ± 0.0015
same,refractive index,[2]; 303.15 K,1.3876 ± 0.0015
same,refractive index,[2]; 308.15 K,1.3848 ± 0.0015
same,refractive index,[2]; 313.15 K,1.3833 ± 0.0015
same,refractive index,[2]; 318.15 K,1.3785 ± 0.0015
same,refractive index,[2]; 323.15 K,1.376 ± 0.0015
"CC(C)CC(C)(C)C [2,2,4-trimethylpentane] + CC1CCCCC1",refractive index,[3]; 293.15 K,1.3921 ± 0.0015
same,refractive index,[3]; 298.15 K,1.3886 ± 0.0015
same,refractive index,[3]; 303.15 K,1.3876 ± 0.0015
same,refractive index,[3]; 308.15 K,1.3848 ± 0.0015
same,refractive index,[3]; 313.15 K,1.3833 ± 0.0015
same,refractive index,[3]; 318.15 K,1.3785 ± 0.0015
same,refractive index,[3]; 323.15 K,1.376 ± 0.0015
same,surface tension liquid-gas,[4]; 293.15 K,18.94 ± 0.24 mN/m
same,viscosity,[4]; 293.15 K,0.518 ± 0.083 mPa·s
same,mass density,[4]; 293.15 K,691.91 ± 0.19 kg/m3
same,surface tension liquid-gas,[4]; 298.15 K,18.39 ± 0.24 mN/m
same,viscosity,[4]; 298.15 K,0.493 ± 0.079 mPa·s
same,mass density,[4]; 298.15 K,687.82 ± 0.19 kg/m3
same,surface tension liquid-gas,[4]; 303.15 K,17.99 ± 0.24 mN/m
same,viscosity,[4]; 303.15 K,0.47 ± 0.075 mPa·s
same,mass density,[4]; 303.15 K,683.68 ± 0.19 kg/m3
same,surface tension liquid-gas,[4]; 308.15 K,17.58 ± 0.23 mN/m
same,viscosity,[4]; 308.15 K,0.449 ± 0.072 mPa·s
same,mass density,[4]; 308.15 K,679.51 ± 0.19 kg/m3
same,viscosity,[4]; 313.15 K,0.43 ± 0.069 mPa·s
same,mass density,[4]; 313.15 K,675.32 ± 0.19 kg/m3
same,viscosity,[4]; 318.15 K,0.414 ± 0.066 mPa·s
same,mass density,[4]; 318.15 K,671.05 ± 0.19 kg/m3
same,viscosity,[4]; 323.15 K,0.398 ± 0.064 mPa·s
same,mass density,[4]; 323.15 K,666.8 ± 0.2 kg/m3
same,viscosity,[4]; 333.15 K,0.371 ± 0.06 mPa·s
same,mass density,[4]; 333.15 K,658.2 ± 0.2 kg/m3
same,viscosity,[4]; 343.15 K,0.348 ± 0.056 mPa·s
same,mass density,[4]; 343.15 K,649.44 ± 0.2 kg/m3
"CC(C)CC(C)(C)C [2,2,4-trimethylpentane] + CCCCC1CCCCC1",refractive index,[3]; 293.15 K,1.3921 ± 0.0015
same,refractive index,[3]; 298.15 K,1.3886 ± 0.0015
same,refractive index,[3]; 303.15 K,1.3876 ± 0.0015
same,refractive index,[3]; 308.15 K,1.3848 ± 0.0015
same,refractive index,[3]; 313.15 K,1.3833 ± 0.0015
same,refractive index,[3]; 318.15 K,1.3785 ± 0.0015
same,refractive index,[3]; 323.15 K,1.376 ± 0.0015
same,surface tension liquid-gas,[4]; 293.15 K,18.94 ± 0.24 mN/m
same,viscosity,[4]; 293.15 K,0.518 ± 0.083 mPa·s
same,mass density,[4]; 293.15 K,691.91 ± 0.19 kg/m3
same,surface tension liquid-gas,[4]; 298.15 K,18.39 ± 0.24 mN/m
same,viscosity,[4]; 298.15 K,0.493 ± 0.079 mPa·s
same,mass density,[4]; 298.15 K,687.82 ± 0.19 kg/m3
same,surface tension liquid-gas,[4]; 303.15 K,17.99 ± 0.24 mN/m
same,viscosity,[4]; 303.15 K,0.47 ± 0.075 mPa·s
same,mass density,[4]; 303.15 K,683.68 ± 0.19 kg/m3
same,surface tension liquid-gas,[4]; 308.15 K,17.58 ± 0.23 mN/m
same,viscosity,[4]; 308.15 K,0.449 ± 0.072 mPa·s
same,mass density,[4]; 308.15 K,679.51 ± 0.19 kg/m3
same,viscosity,[4]; 313.15 K,0.43 ± 0.069 mPa·s
same,mass density,[4]; 313.15 K,675.32 ± 0.19 kg/m3
same,viscosity,[4]; 318.15 K,0.414 ± 0.066 mPa·s
same,mass density,[4]; 318.15 K,671.05 ± 0.19 kg/m3
same,viscosity,[4]; 323.15 K,0.398 ± 0.064 mPa·s
same,mass density,[4]; 323.15 K,666.8 ± 0.2 kg/m3
same,viscosity,[4]; 333.15 K,0.371 ± 0.06 mPa·s
same,mass density,[4]; 333.15 K,658.2 ± 0.2 kg/m3
same,viscosity,[4]; 343.15 K,0.348 ± 0.056 mPa·s
same,mass density,[4]; 343.15 K,649.44 ± 0.2 kg/m3
CCCCC1CCCCC1 [butylcyclohexane],surface tension liquid-gas,[1]; 293.15 K,26.81 ± 0.25 mN/m
same,viscosity,[1]; 293.15 K,1.304 ± 0.21 mPa·s
same,mass density,[1]; 293.15 K,799.37 ± 0.15 kg/m3
same,surface tension liquid-gas,[1]; 298.15 K,25.87 ± 0.24 mN/m
same,viscosity,[1]; 298.15 K,1.199 ± 0.19 mPa·s
same,mass density,[1]; 298.15 K,795.63 ± 0.15 kg/m3
same,surface tension liquid-gas,[1]; 303.15 K,25.49 ± 0.24 mN/m
same,viscosity,[1]; 303.15 K,1.109 ± 0.18 mPa·s
same,mass density,[1]; 303.15 K,791.88 ± 0.15 kg/m3
same,surface tension liquid-gas,[1]; 308.15 K,24.73 ± 0.24 mN/m
same,viscosity,[1]; 308.15 K,1.031 ± 0.17 mPa·s
same,mass density,[1]; 308.15 K,788.12 ± 0.15 kg/m3
same,viscosity,[1]; 313.15 K,0.961 ± 0.15 mPa·s
same,mass density,[1]; 313.15 K,784.35 ± 0.15 kg/m3
same,viscosity,[1]; 318.15 K,0.9 ± 0.14 mPa·s
same,mass density,[1]; 318.15 K,780.49 ± 0.15 kg/m3
same,viscosity,[1]; 323.15 K,0.844 ± 0.14 mPa·s
same,mass density,[1]; 323.15 K,776.7 ± 0.16 kg/m3
same,viscosity,[1]; 333.15 K,0.749 ± 0.12 mPa·s
same,mass density,[1]; 333.15 K,769.09 ± 0.16 kg/m3
same,viscosity,[1]; 343.15 K,0.671 ± 0.11 mPa·s
same,mass density,[1]; 343.15 K,761.43 ± 0.16 kg/m3
same,refractive index,[2]; 293.15 K,1.4403 ± 0.0015
same,refractive index,[2]; 298.15 K,1.4377 ± 0.0015
same,refractive index,[2]; 303.15 K,1.4355 ± 0.0015
same,refractive index,[2]; 308.15 K,1.4333 ± 0.0015
same,refractive index,[2]; 313.15 K,1.4314 ± 0.0015
same,refractive index,[2]; 318.15 K,1.429 ± 0.0015
same,refractive index,[2]; 323.15 K,1.4268 ± 0.0015
